Reference: patent US12528812B2 (Genentech, Inc., priority 2020, dated 2026)

What was measured:
[1] = molecular target: Recombinant human JAK2 kinase domain protein (Residues 812-1132) (Homo sapiens, UniProt O60674); assay: JAK2 biochemical assay (LabChip mobility shift, Ki); conditions: Biochem JAK2 Ki
[2] = molecular target: T1, recombinant human JAK1 kinase domain protein (Residues 854-1154) (Homo sapiens, UniProt P23458); assay: JAK1 biochemical assay (LabChip mobility shift, Ki); conditions: read-out: Biochem JAK1 Ki
T1 construct: human JAK1 kinase domain protein (Residues 854-1154); purchased Proteros Biostructures GmbH (Martinsried, Germany); host or cells: insect cells

[3] = test system: IL-13-stimulated STAT6 phosphorylation in human lung bronchial epithelial BEAS-2B cell line; assay: P-STAT6 BEAS-2B + IL-13 cell assay; assay type: cell-based; conditions: Homo sapiens, BEAS-2B, BEAS2B cells, IL13 stimulation; read-out: Cellular JAK1 PSTAT6 BEAS2B + IL13
Protocol: In order to study the effect of JAK1 inhibitors in a cell line that is relevant to the cell biology of human asthma, an IL-13-stimulated STAT6 phosphorylation assay in the human lung bronchial epithelial BEAS-2B cell line was developed.
BEAS-2B cells (ATCC′ CRL-9609™) were grown in Bronchial Epithelial Growth Medium (BEGM) (Lonza Catalog No. CC-3170; Walkersville, MD; or PromoCell Catalog No. C-21060; Heidelberg, Germany). Test compound stock solutions (0.5 mM in DMSO) were serially diluted 1:2 in DMSO to generate a 10-point concentration curve (at 500× test concentration), which was further diluted by a 50-fold dilution step in BEGM to generate a 10× concentration curve (in 2% DMSO). Cells were plated at 100,000 cells/well in 200 μL of BEGM in 96-well plates and incubated for 48 hours at 37° C. in a humidified incubator. Medium was aspirated from the cells and replaced with 70 μL of fresh BEGM. Diluted test compound (10 μL; or 2% DMSO in assay medium) was added to the cells, and the plates were incubated for 1 hour at 37° C. in a humidified incubator. Twenty μL of 250 ng/mL human recombinant IL-13 (Bio Techne Catalog No. 213-ILB) was then added to the cells and incubated for 15 minutes at 37° C. Medium was aspirated from the cells and 60 μL of ice-cold 1× cell lysis buffer (Cell Signaling Technologies; Catalog No. 9803S) containing 1 mM PMSF was added to the cells. Assay plates were incubated at −80° C. for at least 1 hour. P-STAT6 was measured by coating GAR plates (MSD; Catalog No. L45RA-1) with rabbit anti-human total STAT6 antibody (Cell Signaling Technologies; Catalog No. 9362S), incubating the cell lysates in the coated plates overnight at 4° C., and then detecting with mouse anti-phospho-STAT6 (Tyr641) Clone 16E12 antibody (Millipore; Catalog No. 05-590, custom labeled by MSD with SULFO-tag) using standard MSD plate processing, washing, and detection protocols. Plates were read on the MESO SECTOR 5600.
Data analysis was performed by subtracting negative control values from all wells and determining percent of control using the positive control values; the IC50 was determined with a four-parameter logistic fit model as shown in Equation 4.

Recombinant human JAK2 kinase domain protein (Residues 812-1132), sequence (O60674 812-1132): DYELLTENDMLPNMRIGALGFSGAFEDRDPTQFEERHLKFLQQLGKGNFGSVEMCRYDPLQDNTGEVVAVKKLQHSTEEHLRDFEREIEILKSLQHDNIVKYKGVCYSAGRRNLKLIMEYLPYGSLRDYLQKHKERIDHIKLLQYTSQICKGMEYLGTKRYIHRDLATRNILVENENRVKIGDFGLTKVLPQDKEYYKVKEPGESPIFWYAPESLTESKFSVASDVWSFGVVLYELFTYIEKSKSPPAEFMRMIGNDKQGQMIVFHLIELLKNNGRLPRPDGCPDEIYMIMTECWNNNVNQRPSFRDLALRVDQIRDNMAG
T1 sequence (P23458 854-1154): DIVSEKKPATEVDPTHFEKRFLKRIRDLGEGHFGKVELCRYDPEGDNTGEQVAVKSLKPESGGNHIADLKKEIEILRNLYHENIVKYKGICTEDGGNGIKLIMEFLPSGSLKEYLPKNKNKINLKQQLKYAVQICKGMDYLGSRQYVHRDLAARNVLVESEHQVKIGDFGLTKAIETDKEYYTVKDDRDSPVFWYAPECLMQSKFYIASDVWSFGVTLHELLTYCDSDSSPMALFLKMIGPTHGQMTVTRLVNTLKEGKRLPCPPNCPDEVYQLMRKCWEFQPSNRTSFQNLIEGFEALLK

SMILES	Ki [1] [nM]	Ki [2] [nM]	IC50 [3] [nM]
Cn1cc(NC(=O)c2cnn3cccnc23)c(-c2cc(Oc3cccc(CN4CCO[C@H](CO)C4)c3)ccc2OC(F)F)n1 (stereo in doubt) [Example 94, N-[3-[2-(difluoromethoxy)-5-[3-[[rac-(2R)-2-(hydroxymethyl)morpholin-4-yl]methyl]phenoxy]phenyl]-1-methyl-pyrazol-4-yl]pyrazolo[1,5-a]pyrimidine-3-carboxamide]	1.1	1.7	40
Cn1cc(NC(=O)c2cnn3cccnc23)c(-c2cc(Oc3cnn([C@H]4CNCC[C@@H]4O)c3)ccc2OC(F)F)n1 (stereo in doubt) [Example 180, N-[3-[2-(difluoromethoxy)-5-[1-[rac-(3S,4S)-4-hydroxy-3-piperidyl]pyrazol-4-yl]oxy-phenyl]-1-methyl-pyrazol-4-yl]pyrazolo[1,5-a]pyrimidine-3-carboxamide]	0.23	0.29	95
CN1CC[C@@H](O)[C@H](n2cc(Oc3ccc(OC(F)F)c(-c4nn(C)cc4NC(=O)c4cnn5cccnc45)c3)cn2)C1 (stereo in doubt) [Example 185, N-[3-[2-(difluoromethoxy)-5-[1-[rac-(3R,4R)-4-hydroxy-l-methyl-3-piperidyl]pyrazol-4-yl]oxy-phenyl]-1-methyl-pyrazol-4-yl]pyrazolo[1,5-a]pyrimidine-3-carboxamide]	0.21	0.33	62
NCc1ccc(Oc2ccc(OC(F)F)c(-c3n[nH]cc3NC(=O)c3cnn4cccnc34)c2)cc1 [Example 3, N-[3-[5-[4-(aminomethyl)phenoxy]-2-(difluoromethoxy)phenyl]-1H-pyrazol-4-yl]pyrazolo[1,5-a]pyrimidine-3-carboxamide]	0.89	3.3	15
O=C(Nc1c[nH]nc1-c1cc(Oc2cccc(OCC(F)(F)F)c2)ccc1OC(F)F)c1cnn2cccnc12 [Example 4, N-[3-[2-(difluoromethoxy)-5-[3-(2,2,2-trifluoroethoxy)phenoxy]phenyl]-1H-pyrazol-4-yl]pyrazolo[1,5-a]pyrimidine-3-carboxamide]	0.7	1.1	18
O=C(Nc1c[nH]nc1-c1cc(Oc2ccc(OCC(F)(F)F)cc2)ccc1OC(F)F)c1cnn2cccnc12 [Example 5, N-[3-[2-(difluoromethoxy)-5-[4-(2,2,2-trifluoroethoxy)phenoxy]phenyl]-1H-pyrazol-4-yl]pyrazolo[1,5-a]pyrimidine-3-carboxamide]	0.91	1.1	18
NCc1cccc(Oc2ccc(OC(F)F)c(-c3n[nH]cc3NC(=O)c3cnn4cccnc34)c2)c1 [Example 6, N-[3-[5-[3-(aminomethyl)phenoxy]-2-(difluoromethoxy)phenyl]-1H-pyrazol-4-yl]pyrazolo[1,5-a]pyrimidine-3-carboxamide]	0.2	0.23	11
NCc1ccccc1Oc1ccc(OC(F)F)c(-c2n[nH]cc2NC(=O)c2cnn3cccnc23)c1 [Example 7, N-[3-[5-[2-(aminomethyl)phenoxy]-2-(difluoromethoxy)phenyl]-1H-pyrazol-4-yl]pyrazolo[1,5-a]pyrimidine-3-carboxamide]	1.9	1.5	360
N#CCc1ccc(Oc2ccc(OC(F)F)c(-c3n[nH]cc3NC(=O)c3cnn4cccnc34)c2)cc1 [Example 8, N-[3-[5-[4-(cyanomethyl)phenoxy]-2-(difluoromethoxy)phenyl]-1H-pyrazol-4-yl]pyrazolo[1,5-a]pyrimidine-3-carboxamide]	0.14	0.18	7.6
O=C(Nc1c[nH]nc1-c1cc(Oc2cccc(C3CNCCO3)c2)ccc1OC(F)F)c1cnn2cccnc12 (stereo not drawn) [Example 9, N-[3-[2-(difluoromethoxy)-5-(3-morpholin-2-ylphenoxy)phenyl]-1H-pyrazol-4-yl]pyrazolo[1,5-a]pyrimidine-3-carboxamide]	0.36	0.34	93
Cc1ccc(Oc2ccc(OC(F)F)c(-c3n[nH]cc3NC(=O)c3cnn4cccnc34)c2)cc1C(=O)N(C)C [Example 10, N-[3-[2-(difluoromethoxy)-5-[3-(dimethylcarbamoyl)-4-methyl-phenoxy]phenyl]-1H-pyrazol-4-yl]pyrazolo[1,5-a]pyrimidine-3-carboxamide]	0.18	0.24	42
O=C(Nc1c[nH]nc1-c1cc(Oc2cccc(CNC3COC3)c2)ccc1OC(F)F)c1cnn2cccnc12 [Example 11, N-[3-[2-(difluoromethoxy)-5-[3-[(oxetan-3-ylamino)methyl]phenoxy]phenyl]-1H-pyrazol-4-yl]pyrazolo[1,5-a]pyrimidine-3-carboxamide]	0.69	1	190
N#CCc1cccc(Oc2ccc(OC(F)F)c(-c3n[nH]cc3NC(=O)c3cnn4cccnc34)c2)c1 [Example 12, N-[3-[5-[3-(cyanomethyl)phenoxy]-2-(difluoromethoxy)phenyl]-1H-pyrazol-4-yl]pyrazolo[1,5-a]pyrimidine-3-carboxamide]	0.21	0.21	18
Cn1cc(NC(=O)c2cnn3cccnc23)c(-c2cc(Oc3cccc(CN)c3)ccc2OC(F)F)n1 [Example 13, N-[3-[5-[3-(aminomethyl)phenoxy]-2-(difluoromethoxy)phenyl]-1-methyl-pyrazol-4-yl]pyrazolo[1,5-a]pyrimidine-3-carboxamide]	0.43	0.21	13
CC(N)c1cccc(Oc2ccc(OC(F)F)c(-c3n[nH]cc3NC(=O)c3cnn4cccnc34)c2)c1 (stereo not drawn) [Example 14, N-[3-[5-[3-(1-aminoethyl)phenoxy]-2-(difluoromethoxy)phenyl]-1H-pyrazol-4-yl]pyrazolo[1,5-a]pyrimidine-3-carboxamide]	0.38	0.25	26
CNCc1cccc(Oc2ccc(OC(F)F)c(-c3n[nH]cc3NC(=O)c3cnn4cccnc34)c2)c1 [Example 15, N-[3-[2-(difluoromethoxy)-5-[3-(methylaminomethyl)phenoxy]phenyl]-1H-pyrazol-4-yl]pyrazolo[1,5-a]pyrimidine-3-carboxamide]	0.4	0.32	24
O=C(Nc1c[nH]nc1-c1cc(Oc2cccc(CNCCO)c2)ccc1OC(F)F)c1cnn2cccnc12 [Example 16, N-[3-[2-(difluoromethoxy)-5-[3-[(2-hydroxyethylamino)methyl]phenoxy]phenyl]-1H-pyrazol-4-yl]pyrazolo[1,5-a]pyrimidine-3-carboxamide]	0.19	0.22	170
Cc1ccc(Oc2ccc(OC(F)F)c(-c3n[nH]cc3NC(=O)c3cnn4cccnc34)c2)cc1CC(=O)N(C)C [Example 17, N-[3-[2-(difluoromethoxy)-5-[3-[2-(dimethylamino)-2-oxo-ethyl]-4-methyl-phenoxy]phenyl]-1H-pyrazol-4-yl]pyrazolo[1,5-a]pyrimidine-3-carboxamide]	0.21	0.42	26
O=C(Nc1c[nH]nc1-c1cc(Oc2ccc3c(c2)CNCC3)ccc1OC(F)F)c1cnn2cccnc12 [Example 18, N-[3-[2-(difluoromethoxy)-5-(1,2,3,4-tetrahydroisoquinolin-7-yloxy)phenyl]-1H-pyrazol-4-yl]pyrazolo[1,5-a]pyrimidine-3-carboxamide]	0.17	0.17	32
NCc1cc(Oc2ccc(OC(F)F)c(-c3n[nH]cc3NC(=O)c3cnn4cccnc34)c2)ccc1F [Example 19, N-[3-[5-[3-(aminomethyl)-4-fluoro-phenoxy]-2-(difluoromethoxy)phenyl]-1H-pyrazol-4-yl]pyrazolo[1,5-a]pyrimidine-3-carboxamide]	0.28	0.39	49
Cn1cc(NC(=O)c2cnn3cccnc23)c(-c2cc(Oc3ccc(CN)cc3)ccc2OC(F)F)n1 [Example 20, N-[3-[5-[4-(aminomethyl)phenoxy]-2-(difluoromethoxy)phenyl]-1-methyl-pyrazol-4-yl]pyrazolo[1,5-a]pyrimidine-3-carboxamide]	0.59	1.5	19
